The record followed here is patent US20250205211A1, “TYK2 INHIBITORS AND USES THEREOF” (Alumis Inc., priority 2022, published 2025).

In general, AUC refers to concentration integrated over time. As usually defined, the Cmax is the highest concentration seen after dosing.

The data set in a line: FIH study: single doses and seven-day courses of Compound A in healthy participants (safety, pharmacokinetics). The format is in vivo, human.
[1] abbreviates: single dose 100 mg, FIH study, mean.

As to `[2H]C([2H])([2H])CC(=O)c1cnc(NC(=O)C2CC2)cc1Nc1cccc(-c2ncn(C([2H])([2H])[2H])n2)c1OC` [Compound A, N-(4-((2-Methoxy-3-(1-(methyl-d3)-1H-1,2,4-triazol-3-yl)phenyl)amino)-5-(propanoyl-3,3,3-d3)pyridin-2-yl)cyclopropanecarboxamide], where the note is “human, in vivo, oral, seven-day course, 40 mg q12h, read-out: mean AUC from time 0 to 12 hours at steady state [AUCo-12,ss]”, the AUC was 3.62 µg·h/mL. For the setting “human, in vivo, oral, single dose 100 mg, FIH study, highest individual value”, this compound returned a Cmax of 1.16 µg/mL. Besides, where the note is “human, in vivo, oral, single dose 100 mg, FIH study, highest individual value, read-out: AUC0-inf highest value”, the AUC(0-inf) stood at 13.7 µg·h/mL. The “mean Cmax at steady state [Cmax,ss]” value (seven-day course, 40 mg q12h) stood at 0.433 µg/mL. Besides, the “tolerability of seven-day courses” value (seven-day courses of up to 40 mg q12h) is “well tolerated”. Moreover, under setting [1], the AUC0-inf averaged is 11,286 ng*h/mL and the Cmax averaged is 0.949 µg/mL. In addition, the “safety of single doses” value (single doses of up to 100 mg) is listed as “without clinically significant safety concerns”.
